Results as given in patent US20260347403A1, “FUNGICIDAL COMPOUND” (priority 2022, published 2026).
Like-named read-outs stand apart in the source and are kept apart here. Numbered stars: 1 amine (or outer) side, 2 acyl side, 3 side chain; on linkers, the order of the positions; unused ones are H or OH. Bridge positions count the residues as written; N and C are the ends. Square brackets hold non-standard residues; d marks the D form. Peptide text beside a SMILES is read from it. * marks the point of attachment. Tridecanoyl(12-Me) = CC(C)CCCCCCCCCCC(=O)*; X1 = NC(=O)CC(O)C(N[*:1])C(=O)[*:2]; NMeF = CN[CH](Cc1ccccc1)C(=O)O; NMeN = CN[CH](CC(N)=O)C(=O)O

Legend:
Sclerotinia sclerotiorum = test: Liquid culture 96-well mixture assay with malonomicin, Sclerotinia sclerotiorum, 72 hrs; type: cell-based; settings: plate column (1): compound of Formula I(a) alone, dilution series lines A (highest) to G; concentrations in Table 8
Method: A stock solution for compound of Formula I(a) was produced in DMSO (max. 10 mg/ml). Malonomicin was produced according to Law et al, 2018 (Nature Catalys is |VOL 1|DECEMBER 2018|977-984). A stock solution of malonomicin was produced in water plus 0.025% Tween® 20.
Assays to test efficacy of mixtures of the lipopeptide compound of Formula I(a) in combination with malonomicin on the control of fungal pathogens in a liquid culture assay were designed for a 96well plate as outlined in table 1:
The 96 well plate design allows to compare disease control of the mixture with disease control of the respective single compound at the same rate.
A master plate with 10× concentrated solution of the compound stock solutions diluted in water plus 0.025% Tween® 20 was prepared. The concentration of DMSO (from the stock of compound of Formula (a)) and Tween® 20 was kept constant in all cells of the master plate. 10 μl was transferred from the master plate to a 96well test plate. The nutrient broth containing the fungal spores/mycelia fragments was then added to the test plate to give an end concentration of 1× for the tested compounds (as outlined in Table 8). The test plates were incubated in the dark at 24 °C and 96% rh. The inhibition of fungal growth was determined photometrically after ca 3 days, and percent fungal growth reduction relative to the untreated check was calculated.
Sclerotinia sclerotiorum (EPPO Code: SCLESC)
Mycelial fragments of the fungus prepared from a fresh liquid culture were directly mixed into nutrient broth (PDB: potato dextrose broth).

Mycosphaerella arachidis = test: Liquid culture, Mycosphaerella arachidis (Cercospora arachidicola), early leaf spot, 4-5 days; type: cell-based; settings: Mycosphaerella arachidis, read-out: % reduction fungal growth
Method: (§1) Mycelia fragments or conidia suspensions of a fungus, prepared either freshly from liquid cultures of the fungus or from cryogenic storage, were directly mixed into nutrient broth.
(§2) A stock solution for compound of Formula I(a) and Formula I(b) was produced in DMSO (max. 10 mg/ml), which was diluted with water plus 0.025% Tween®20 to produce a 10× concentrated sample and 10 μl of this solution was pipetted into a microtiter plate (96-well format). The nutrient broth containing the fungal spores/mycelia fragments was then added to give an end concentration of the tested compound. The test plates were incubated in the dark at 24 °C and 96% rh. The inhibition of fungal growth was determined photometrically after 2-7 days, depending on the pathosystem, and percent antifungal activity relative to the untreated check was calculated.
(§3) The effect of the test compound (Formula I(a), I(b) and Lipopeptin A) was tested against the following fungi under the conditions as outlined above and specifically herein below:
Mycosphaerella arachidis (Cercospora arachidicola)/liquid culture (early leaf spot) Conidia of the fungus from cryogenic storage were directly mixed into nutrient broth (PDB potato dextrose broth). The inhibition of growth was determined photometrically 4-5 days after application.

[1] = test system: Puccinia recondita f. sp. tritici; test: Leaf painting assay in wheat seedling, Puccinia recondita; type: in vivo, Puccinia recondita f. sp. tritici on wheat (variety Arina); settings: for % reduction of fungal growth: middle segment
Method: Wheat seedlings of the variety Riband (for Zymoseptoria tritici trials) or variety Arina (for Puccinia recondite trials) were grown in a glasshouse until 14 d after seeding. At this time, such seedlings usually have a first leaf fully emerged (designated L1), a second leaf fully emerged (L2) and a third leaf (L3) that was partially emerged and in the process of development. Using a permanent pen, two dots were applied on the second leaf such as to generate three segments of roughly equal size: Segment A (at the base), segment B (middle part) and segment C (upper part of the leaf). A stock solution of the test compound was produced in DMSO at a concentration of 10′000 ppm. […] The diluted compound was applied to the middle segment of L2 using a conventional cotton stick; the cotton stick was soaked in the diluted compound and rubbed several times on the adaxial leaf surface between the two marks. 1 day later, the complete plant was inoculated with a fungal spore suspension using a paint brush and application of the spore suspension until before run-off.
For infection with Puccinia recondita: The test plants were inoculated by spraying them with a spore suspension 1 day after application (spore suspension at 80′000 spores per ml in water supplemented with Tween® 20 at 0.1%). After an incubation period of 1 day at 20 °C and 95% rh, the inoculated test plants were kept at 20 °C and 60% rh in a greenhouse.
The three segments of the leaf were evaluated individually.

Pyricularia oryzae = type: cell-based; settings: plate column (1): compound of Formula I(a) alone, dilution series lines A (highest) to G; concentrations in Table 8
Glomerella lagenarium = test: Liquid culture, Glomerella lagenarium (Colletotrichum lagenarium), Anthracnose, 3-4 days; type: cell-based; settings: Colletotrichum orbiculare, read-out: % reduction fungal growth
Method: as §1, §2, §3
Glomerella lagenarium (Colletotrichum lagenarium)/Liquid Culture (Anthracnose)
Conidia of the fungus from cryogenic storage were directly mixed into nutrient broth (PDB potato dextrose broth). The inhibition of growth was measured photometrically 3-4 days after application.

Zymoseptoria tritici = test: Liquid culture, Zymoseptoria tritici (Septoria tritici), Septoria leaf blotch, 4-5 days; type: cell-based; settings: Zymoseptoria tritici, read-out: % reduction fungal growth
Method: as §1, §2, §3
Zymoseptoria tritici (Septoria tritici)/liquid culture (Septoria leaf blotch) Conidia of the fungus from cryogenic storage were directly mixed into nutrient broth (PDB potato dextrose broth). The inhibition of growth was determined photometrically 4-5 days after application.

## CC(C)CCCCCCCCCCC(=O)NC1C(=O)NC(CC(=O)O)C(=O)NC(C(O)CC(N)=O)C(=O)NC(CO)C(=O)N(C)C(CC(N)=O)C(=O)N(C)C(Cc2ccccc2)C(=O)NC(CCC(N)=O)C(=O)NC(CCC(=O)O)C(=O)OC1C (centres unmarked) [Formula I(a)] ({Tridecanoyl(12-Me)}-TD[X1]S[NMeN][NMeF]QE; ester 1-C; configuration not given here)
Sclerotinia sclerotiorum
  control of fungal growth (% reduction of growth in the test well as compared to untreated check): 0%
Mycosphaerella arachidis; Table 2
  inhibition of growth at 0.41 ppm: 0%
  inhibition of growth at 1.2 ppm: 0%
  inhibition of growth at 3.7 ppm: 100%
  inhibition of growth at 11 ppm: 100%
  inhibition of growth at 33 ppm: 100%
  inhibition of growth at 100 ppm: 100%
Mycosphaerella arachidis; Table 3
  inhibition of growth at 0.41 ppm: 0%
  inhibition of growth at 1.2 ppm: 0%
  inhibition of growth at 3.7 ppm: 0%
  inhibition of growth at 11 ppm: 70%
  inhibition of growth at 33 ppm: 100%
  inhibition of growth at 100 ppm: 100%
[1]; 20 ppm
  % reduction of fungal growth: 70%
[1]; 200 ppm
  % reduction of fungal growth: 61%
[1]; up to, Table 6, Puccinia
  control on the treated area (middle segment): up to 70%
Pyricularia oryzae
  control of fungal growth (% reduction of growth in the test well as compared to untreated check): 20%
Glomerella lagenarium; Table 2
  inhibition of growth at 0.41 ppm: 0%
  inhibition of growth at 1.2 ppm: 0%
  inhibition of growth at 3.7 ppm: 0%
  inhibition of growth at 11 ppm: 50%
  inhibition of growth at 33 ppm: 90%
  inhibition of growth at 100 ppm: 100%
Glomerella lagenarium; Table 3
  inhibition of growth at 0.41 ppm: 0%
  inhibition of growth at 1.2 ppm: 0%
  inhibition of growth at 3.7 ppm: 0%
  inhibition of growth at 11 ppm: 0%
  inhibition of growth at 33 ppm: 0%
  inhibition of growth at 100 ppm: 50%
Zymoseptoria tritici; Table 2
  inhibition of growth at 0.41 ppm: 0%
  inhibition of growth at 1.2 ppm: 0%
  inhibition of growth at 3.7 ppm: 0%
  inhibition of growth at 11 ppm: 70%
  inhibition of growth at 33 ppm: 100%
  inhibition of growth at 100 ppm: 100%
Zymoseptoria tritici; Table 3
  inhibition of growth at 0.41 ppm: 0%
  inhibition of growth at 1.2 ppm: 0%
  inhibition of growth at 3.7 ppm: 0%
  inhibition of growth at 11 ppm: 70%
  inhibition of growth at 33 ppm: 90%
  inhibition of growth at 100 ppm: 90%
